Reference: EPA's ToxRefDB 2

What was measured:
rat [1] = conditions: Prenatal developmental toxicity study, sprague dawley, Oral, Gavage/Intubation, dose end: 15 GD
mouse [2] = conditions: Carcinogenicity; cd1; Oral; Feed; dose end: 102 week; group: systemic; systemic / organ weight / liver / absolute + systemic / organ weight / liver / relative to body weight
mouse [3] = conditions: Carcinogenicity, cd1, Oral, Feed, dose end: 8 week, group: systemic
dog [4] = conditions: Chronic toxicity, beagle, Oral, Feed, dose end: 8 week, group: systemic
dog [5] = conditions: Chronic toxicity; beagle; Oral; Feed; dose end: 52 week; group: systemic; systemic / organ weight / thyroid gland / absolute + systemic / organ weight / thyroid gland / relative to body weight + systemic / …
rat [6] = conditions: Combined chronic toxicity/carcinogenicity, sprague dawley, Oral, Feed, dose end: 104 week, group: systemic
rat [7] = conditions: Subchronic oral toxicity in rodents, sprague dawley, Feed, dose end: 90 day, group: systemic
dog [8] = conditions: Subchronic oral toxicity in nonrodent, beagle, Feed, dose end: 13 week, group: systemic, systemic / in life observation / body weight / body weight + systemic / in life observation / body weight / body weight gain + systemic / in…
mouse [9] = conditions: Prenatal developmental toxicity study, CD-1, Dermal, Topical, dose end: 13 GD, group: maternal
rabbit = conditions: Prenatal developmental toxicity study, Dermal, Topical, dose end: 16 GD, group: maternal
[10] = group: developmental, developmental / developmental malformation / bone / short
[11] = group: maternal, systemic / in life observation / mortality / mortality + reproductive / reproductive performance / resorptions / resorptions
[12] = systemic / organ weight / liver / relative to body weight
[13] = systemic / organ weight / liver / relative to body weight + systemic / clinical chemistry / alkaline phosphatase (alp/alk) / alkaline …
[14] = systemic / clinical chemistry / alanine aminotransferase (alt/sgpt) / alanine aminotransferase (alt/sgpt) + systemic / clinical chemistry / …
[15] = systemic / clinical chemistry / alanine aminotransferase (alt/sgpt) / alanine aminotransferase (alt/sgpt)
[16] = systemic / clinical chemistry / albumin-globulin ratio / albumin-globulin ratio + systemic / clinical chemistry / phosphorus / phosphate
[17] = systemic / hematology / erythrocyte (rbc) count differential / erythrocyte (rbc) + systemic / hematology / leukocyte (wbc) count …
[18] = systemic / in life observation / body weight / body weight gain + systemic / in life observation / clinical signs / erythema + systemic / in…

C=CCC1=C(C)[C@@H](OC(=O)[C@@H]2[C@@H](C=C(C)C)C2(C)C)CC1=O [S-Bioallethrin]
LEL (rat [1]; [10]): 50 mg/kg/day
LOAEL (rat [1]; [10]): 50 mg/kg/day
NEL (rat [1]; [10]): < 50 mg/kg/day
NOAEL (rat [1]; [10]): < 50 mg/kg/day
LOAEL (rat [1]; group: maternal, systemic / in life observation / mortality / mortality): 195 mg/kg/day
LEL (rat [1]; [11]): 195 mg/kg/day
NEL (rat [1]; [11]): 125 mg/kg/day
NOAEL (rat [1]; [11]): 125 mg/kg/day
LEL (mouse [2]): 214 mg/kg/day
LOAEL (mouse [2]): > 214 mg/kg/day
NEL (mouse [2]): 41.9 mg/kg/day
NOAEL (mouse [2]): ≥ 214 mg/kg/day
LEL (mouse [3]; [12]): 420 mg/kg/day
LOAEL (mouse [3]; [12]): 420 mg/kg/day
NEL (mouse [3]; [13]): 229 mg/kg/day
NOAEL (mouse [3]; [13]): 229 mg/kg/day
LOAEL (dog [4]; [14]): 63.2 mg/kg/day
NEL (dog [4]; [14]): 4.5 mg/kg/day
NOAEL (dog [4]; [14]): 19.5 mg/kg/day
LEL (dog [4]; systemic / organ weight / liver / absolute + systemic / organ weight / liver / relative to body weight): 19.5 mg/kg/day
LEL (dog [5]): 2.7 mg/kg/day
LOAEL (dog [5]): 13.7 mg/kg/day
NEL (dog [5]): < 2.7 mg/kg/day
NOAEL (dog [5]): 2.7 mg/kg/day
LEL (rat [6]; [15]): 7.2 mg/kg/day
LOAEL (rat [6]; [15]): 82.6 mg/kg/day
NEL (rat [6]; [15]): < 7.2 mg/kg/day
NOAEL (rat [6]; systemic / clinical chemistry / alanine aminotransferase (alt/sgpt) / alanine aminotransferase (alt/sgpt) + systemic / pathology microscopic…): 27 mg/kg/day
LEL (rat [7]; [16]): 20.6 mg/kg/day
NEL (rat [7]; [16]): < 20.6 mg/kg/day
LOAEL (rat [7]; [17]): 36.6 mg/kg/day
NOAEL (rat [7]; [17]): 18.5 mg/kg/day
LEL (dog [8]): 90.5 mg/kg/day
LOAEL (dog [8]): 90.5 mg/kg/day
NEL (dog [8]): 38.5 mg/kg/day
NOAEL (dog [8]): 38.5 mg/kg/day

CCCCCCCCCCC(C)c1ccc(S(=O)(=O)O)cc1 (centres undefined) [Alkylbenzenesulfonate, linear]
LEL (mouse [9]; reproductive / offspring survival early / dead fetuses / dead fetuses + systemic / in life observation / clinical signs / irritability): 50 mg/kg/day
LOAEL (mouse [9]; systemic / in life observation / body weight / body weight gain + systemic / in life observation / clinical signs / erythema + reproductive…): 500 mg/kg/day
NEL (mouse [9]; [18]): 5 mg/kg/day
NOAEL (mouse [9]; [18]): 50 mg/kg/day
LEL (rabbit; systemic / in life observation / body weight / body weight gain): 9 mg/kg/day
LOAEL (rabbit; [18]): > 90 mg/kg/day
NEL (rabbit; [18]): 0.9 mg/kg/day
NOAEL (rabbit; [18]): ≥ 90 mg/kg/day
